Several values for one entry are separate records, joined by “and”; a condition that tells them apart may be missing. Identical values can stand only once. Toxic doses and inconclusive results are not listed.
Tested on: P388 leukemia ip, CD2F1 mice, survival T/C
Experiment: NCI In Vivo Anticancer Drug Screen. Data for tumor model P388 Leukemia (intraperitoneal) in CD2F1 (CDF1) mice
Conditions: endpoint: median survival time, higher = longer survival
Outline: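 Mice carrying the transplanted tumor received test compound or vehicle. Survival was recorded in each group, and the value is the treated-group measurement divided by that of the vehicle-treated control group.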

[1] = dose: 50.0 mg/kg/injection, schedule: Q01DX009 (ip), vehicle: saline with Tween-80
[2] = dose: 100.0 mg/kg/injection, schedule: Q01DX009 (ip), vehicle: saline with Tween-80
[3] = dose: 25.0 mg/kg/injection, schedule: Q01DX009 (ip), vehicle: Klucel (hydroxypropylcellulose) (HPC)
[4] = dose: 50.0 mg/kg/injection, schedule: Q01DX009 (ip), vehicle: Klucel (hydroxypropylcellulose) (HPC)
[5] = dose: 100.0 mg/kg/injection, schedule: Q01DX009 (ip), vehicle: Klucel (hydroxypropylcellulose) (HPC)
[6] = dose: 200.0 mg/kg/injection, schedule: Q01DX009 (ip), vehicle: Klucel (hydroxypropylcellulose) (HPC)
[7] = dose: 50.0 mg/kg/injection, schedule: Q01DX005 (ip), vehicle: Klucel (hydroxypropylcellulose) (HPC)
[8] = dose: 100.0 mg/kg/injection, schedule: Q01DX005 (ip), vehicle: Klucel (hydroxypropylcellulose) (HPC)
[9] = dose: 200.0 mg/kg/injection, schedule: Q01DX005 (ip), vehicle: Klucel (hydroxypropylcellulose) (HPC)
[10] = dose: 100.0 mg/kg/injection, schedule: Q04DX003 (ip), vehicle: saline
[11] = dose: 200.0 mg/kg/injection, schedule: Q04DX003 (ip), vehicle: saline
[12] = dose: 400.0 mg/kg/injection, schedule: Q04DX003 (ip), vehicle: saline

In the case of CCOC(=O)c1ccc(N2N=C3C(=CC(=O)c4ccccc43)SCC2=O)cc1, the T/C (dose: 12.5 mg/kg/injection, schedule: Q01DX005 (ip), vehicle: saline with Tween-80) is reported as 112 % of control, the T/C (dose: 25.0 mg/kg/injection, schedule: Q01DX005 (ip), vehicle: saline with Tween-80) is reported as 117 % of control and the T/C (dose: 50.0 mg/kg/injection, schedule: Q01DX005 (ip), vehicle: saline with Tween-80) is reported as 116 % of control.

In the case of COc1ccc(/C=C2\C(=O)N(Cc3ccco3)SC2=S)c(OC)c1OC, the T/C [1] is reported as 90 % of control, the T/C [2] is reported as 90 % of control and the T/C (dose: 200.0 mg/kg/injection, schedule: Q01DX009 (ip), vehicle: saline with Tween-80) is reported as 106 % of control.

In the case of COc1cccc2c1C(=O)c1c(O)c3c(c(O)c1C2=O)C[C@@](O)(C(=O)COC(=O)Cc1cccc2ccccc12)C[C@@H]3OC1CC(N)C(O)C(C)O1 (some centres undefined), the T/C (dose: 0.5 mg/kg/injection, schedule: Q01DX009 (ip), vehicle: other) is reported as 164 % of control, the T/C (dose: 0.5 mg/kg/injection, schedule: Q01DX009 (ip), vehicle: saline with Tween-80) is reported as 169 % of control and the T/C (dose: 0.5 mg/kg/injection, schedule: Q01DX009 (ip), vehicle: saline) is reported as 107 % of control. For the same molecule, the T/C (dose: 0.78 mg/kg/injection, schedule: Q01DX009 (ip), vehicle: other) was 157 % of control, the T/C (dose: 1.0 mg/kg/injection, schedule: Q01DX009 (ip), vehicle: other) was 156 % of control and the T/C (dose: 1.0 mg/kg/injection, schedule: Q01DX009 (ip), vehicle: saline with Tween-80) was 183 % of control. For the same molecule, the T/C (dose: 1.0 mg/kg/injection, schedule: Q01DX009 (ip), vehicle: saline) was 121 % of control, the T/C (dose: 1.56 mg/kg/injection, schedule: Q01DX009 (ip), vehicle: other) was 190 % of control and the T/C (dose: 2.0 mg/kg/injection, schedule: Q01DX009 (ip), vehicle: other) was 170 % of control. For the same molecule, the T/C (dose: 2.0 mg/kg/injection, schedule: Q01DX009 (ip), vehicle: saline with Tween-80) was 231 % of control, the T/C (dose: 2.0 mg/kg/injection, schedule: Q01DX009 (ip), vehicle: saline) was 124 % of control and the T/C (dose: 3.13 mg/kg/injection, schedule: Q01DX009 (ip), vehicle: other) was 245 % of control. For the same molecule, the T/C (dose: 4.0 mg/kg/injection, schedule: Q01DX009 (ip), vehicle: other) was 113 % of control, the T/C (dose: 4.0 mg/kg/injection, schedule: Q01DX009 (ip), vehicle: saline with Tween-80) was 161 % of control and 277 % of control and the T/C (dose: 4.0 mg/kg/injection, schedule: Q01DX009 (ip), vehicle: saline) was 122 % of control. The T/C (dose: 8.0 mg/kg/injection, schedule: Q01DX009 (ip), vehicle: saline with Tween-80) was 100 % of control and the T/C (dose: 16.0 mg/kg/injection, schedule: Q01DX009 (ip), vehicle: saline with Tween-80) was 99 % of control.

In the case of COc1ccc2c(=O)c(-c3cc4c(cc3OC)OCO4)coc2c1, the T/C (dose: 8.0 mg/kg/injection, schedule: Q01DX005 (ip), vehicle: Klucel (hydroxypropylcellulose) (HPC)) is reported as 88 % of control and the T/C (dose: 16.0 mg/kg/injection, schedule: Q01DX005 (ip), vehicle: Klucel (hydroxypropylcellulose) (HPC)) is reported as 86 % of control.

O=c1[nH][nH]c2c([N+](=O)[O-])ccc(F)c12 was tested, and the T/C (dose: 12.5 mg/kg/injection, schedule: Q01DX009 (ip), vehicle: Klucel (hydroxypropylcellulose) (HPC)) was 100 % of control, the T/C [3] was 101 % of control and the T/C [4] was 110 % of control.

In the case of C/C=C1/CN2CCC1CC2C(O)c1ccnc2ccc(OCCO)cc12 (centres undefined), the T/C (dose: 50.0 mg/kg/injection, schedule: Q01DX005 (ip), vehicle: saline) is reported as 97 % of control, the T/C (dose: 100.0 mg/kg/injection, schedule: Q01DX005 (ip), vehicle: saline) is reported as 93 % of control and the T/C (dose: 200.0 mg/kg/injection, schedule: Q01DX005 (ip), vehicle: saline) is reported as 94 % of control.

With COc1cccc2c1C(=O)c1c(O)c3c(c(O)c1C2=O)CC(O)(C(=O)CO)CC3OC1CC(N/C(C)=C/C(C)=O)C(O)C(C)O1 (centres undefined) the T/C (dose: 10.0 mg/kg/injection, schedule: Q04DX003 (ip), vehicle: saline with Tween-80) was 160 % of control.

In the case of CCOC1(C)OC2OC(COCc3ccccc3)C(OCc3ccccc3)C(OCc3ccccc3)C2O1 (centres undefined), the T/C (dose: 12.5 mg/kg/injection, schedule: Q01DX009 (ip), vehicle: other) is reported as 99 % of control, the T/C (dose: 25.0 mg/kg/injection, schedule: Q01DX009 (ip), vehicle: other) is reported as 100 % of control and the T/C (dose: 50.0 mg/kg/injection, schedule: Q01DX009 (ip), vehicle: other) is reported as 100 % of control. The T/C (dose: 100.0 mg/kg/injection, schedule: Q01DX009 (ip), vehicle: other) was 89 % of control and the T/C (dose: 200.0 mg/kg/injection, schedule: Q01DX009 (ip), vehicle: other) was 98 % of control.

In the case of COc1ccc2c(c1)C(Cc1ccc(Oc3cc(CC4c5cc(OC)ccc5CC[N+]4(C)C)ccc3OC)cc1)[N+](C)(C)CC2 (centres undefined), the T/C (dose: 1.56 mg/kg/injection, schedule: Q04DX003 (ip), vehicle: water) is reported as 106 % of control and the T/C (dose: 3.13 mg/kg/injection, schedule: Q04DX003 (ip), vehicle: water) is reported as 102 % of control.

With COC(=O)c1ccc(-c2ccccc2)cc1 the T/C [3] was 89 % of control, the T/C [4] was 89 % of control and the T/C [5] was 90 % of control. For the same molecule, the T/C [6] was 86 % of control.

CCOC(=O)CC(=O)c1cccnc1 was tested, and the T/C (dose: 50.0 mg/kg/injection, schedule: Q04DX003 (ip), vehicle: suspension in saline) was 113 % of control, the T/C (dose: 100.0 mg/kg/injection, schedule: Q04DX003 (ip), vehicle: suspension in saline) was 104 % of control and the T/C (dose: 200.0 mg/kg/injection, schedule: Q04DX003 (ip), vehicle: suspension in saline) was 114 % of control. The T/C (dose: 400.0 mg/kg/injection, schedule: Q04DX003 (ip), vehicle: suspension in saline) was 113 % of control.

With CC(O)C(NC(=O)OCC1c2ccccc2-c2ccccc21)C(=O)O (centres undefined) the T/C [7] was 104 % of control, the T/C [8] was 100 % of control and the T/C [9] was 107 % of control.

With CC1CN(CC#CCN2C(=O)CCC2=O)CC(C)O1 (centres undefined) the T/C (dose: 25.0 mg/kg/injection, schedule: Q01DX005 (ip), vehicle: Klucel (hydroxypropylcellulose) (HPC)) was 103 % of control, the T/C [7] was 107 % of control and the T/C [8] was 103 % of control. The T/C [9] was 107 % of control.

In the case of COc1ccc(C(C)=O)cc1OC, the T/C [10] is reported as 100 % of control, the T/C [11] is reported as 100 % of control and the T/C [12] is reported as 100 % of control.

With Nc1ncnc2c1c(C(=O)O)cn2C1OC(CO)C(O)C1O (centres undefined) the T/C (dose: 25.0 mg/kg/injection, schedule: Q04DX003 (ip), vehicle: saline with Tween-80) was 120 % of control, the T/C [1] was 118 % of control and the T/C [2] was 86 % of control.

With CC1(C)CN(C(C)(C)C)CC(C)(C)C(O)C1=O (centres undefined) the T/C (dose: 100.0 mg/kg/injection, schedule: Q01DX001 (ip), vehicle: saline with Tween-80) was 100 % of control, the T/C (dose: 200.0 mg/kg/injection, schedule: Q01DX001 (ip), vehicle: saline with Tween-80) was 118 % of control and the T/C (dose: 400.0 mg/kg/injection, schedule: Q01DX001 (ip), vehicle: saline with Tween-80) was 104 % of control.

For O=C(NCCCN1CCOCC1)Nc1ccc(Cc2ccc(NC(=O)NCCCN3CCOCC3)cc2)cc1, the T/C [4] was 94 % of control, the T/C [5] was 94 % of control and the T/C [6] was 94 % of control.

In the case of O=S(=O)(O)c1cncc(S(=O)(=O)O)n1, the T/C (dose: 100.0 mg/kg/injection, schedule: Q01DX009 (ip), vehicle: saline) is reported as 110 % of control, the T/C [10] is reported as 100 % of control and the T/C (dose: 200.0 mg/kg/injection, schedule: Q01DX009 (ip), vehicle: saline) is reported as 105 % of control. For the same molecule, the T/C [11] was 104 % of control, the T/C (dose: 400.0 mg/kg/injection, schedule: Q01DX009 (ip), vehicle: saline) was 100 % of control and the T/C [12] was 100 % of control.

For COC(=O)c1cccc2c1N(C)c1c(cccc1C(=O)OC)CC2, the T/C (dose: 50.0 mg/kg/injection, schedule: Q01DX009 (ip), vehicle: distilled water + Tween-80 + alcohol) was 93 % of control, the T/C (dose: 100.0 mg/kg/injection, schedule: Q01DX009 (ip), vehicle: distilled water + Tween-80 + alcohol) was 94 % of control and the T/C (dose: 200.0 mg/kg/injection, schedule: Q01DX009 (ip), vehicle: distilled water + Tween-80 + alcohol) was 99 % of control.

For O=C1c2cccc(NCC3CO3)c2C(=O)c2cccc(NCC3CO3)c21 (centres undefined), the T/C (dose: 0.75 mg/kg/injection, schedule: Q01DX005 (ip), vehicle: Klucel (hydroxypropylcellulose) (HPC)) was 99 % of control, the T/C (dose: 1.5 mg/kg/injection, schedule: Q01DX005 (ip), vehicle: Klucel (hydroxypropylcellulose) (HPC)) was 107 % of control and the T/C (dose: 3.0 mg/kg/injection, schedule: Q01DX005 (ip), vehicle: Klucel (hydroxypropylcellulose) (HPC)) was 100 % of control. The T/C (dose: 6.0 mg/kg/injection, schedule: Q01DX005 (ip), vehicle: Klucel (hydroxypropylcellulose) (HPC)) was 96 % of control.

From PubChem BioAssay AID330 (DTP/NCI, 2004)
